Where a name gives a salt, the structure may show the parent alone.
target: T1, ATM (Homo sapiens, UniProt Q13315); experiment: ATM inhibition test (phosphorylation of Chk2 generated by ionizing radiation, AlphaScreen SureFire); format: cell-based; conditions: phosphorylated Chk2 in NCI-H460 cells, ionizing radiation 8Gy, 1 hour after test compound treatment; read-out: ATM inhibitory activity
T1 construct: detecting phosphorylation of Chk2 in a human non-small cell lung cancer cell line NCI-H460 (ATCC company); host or cells: NCI-H460 human non-small cell lung cancer cells
T1 sequence (Q13315 whole entry): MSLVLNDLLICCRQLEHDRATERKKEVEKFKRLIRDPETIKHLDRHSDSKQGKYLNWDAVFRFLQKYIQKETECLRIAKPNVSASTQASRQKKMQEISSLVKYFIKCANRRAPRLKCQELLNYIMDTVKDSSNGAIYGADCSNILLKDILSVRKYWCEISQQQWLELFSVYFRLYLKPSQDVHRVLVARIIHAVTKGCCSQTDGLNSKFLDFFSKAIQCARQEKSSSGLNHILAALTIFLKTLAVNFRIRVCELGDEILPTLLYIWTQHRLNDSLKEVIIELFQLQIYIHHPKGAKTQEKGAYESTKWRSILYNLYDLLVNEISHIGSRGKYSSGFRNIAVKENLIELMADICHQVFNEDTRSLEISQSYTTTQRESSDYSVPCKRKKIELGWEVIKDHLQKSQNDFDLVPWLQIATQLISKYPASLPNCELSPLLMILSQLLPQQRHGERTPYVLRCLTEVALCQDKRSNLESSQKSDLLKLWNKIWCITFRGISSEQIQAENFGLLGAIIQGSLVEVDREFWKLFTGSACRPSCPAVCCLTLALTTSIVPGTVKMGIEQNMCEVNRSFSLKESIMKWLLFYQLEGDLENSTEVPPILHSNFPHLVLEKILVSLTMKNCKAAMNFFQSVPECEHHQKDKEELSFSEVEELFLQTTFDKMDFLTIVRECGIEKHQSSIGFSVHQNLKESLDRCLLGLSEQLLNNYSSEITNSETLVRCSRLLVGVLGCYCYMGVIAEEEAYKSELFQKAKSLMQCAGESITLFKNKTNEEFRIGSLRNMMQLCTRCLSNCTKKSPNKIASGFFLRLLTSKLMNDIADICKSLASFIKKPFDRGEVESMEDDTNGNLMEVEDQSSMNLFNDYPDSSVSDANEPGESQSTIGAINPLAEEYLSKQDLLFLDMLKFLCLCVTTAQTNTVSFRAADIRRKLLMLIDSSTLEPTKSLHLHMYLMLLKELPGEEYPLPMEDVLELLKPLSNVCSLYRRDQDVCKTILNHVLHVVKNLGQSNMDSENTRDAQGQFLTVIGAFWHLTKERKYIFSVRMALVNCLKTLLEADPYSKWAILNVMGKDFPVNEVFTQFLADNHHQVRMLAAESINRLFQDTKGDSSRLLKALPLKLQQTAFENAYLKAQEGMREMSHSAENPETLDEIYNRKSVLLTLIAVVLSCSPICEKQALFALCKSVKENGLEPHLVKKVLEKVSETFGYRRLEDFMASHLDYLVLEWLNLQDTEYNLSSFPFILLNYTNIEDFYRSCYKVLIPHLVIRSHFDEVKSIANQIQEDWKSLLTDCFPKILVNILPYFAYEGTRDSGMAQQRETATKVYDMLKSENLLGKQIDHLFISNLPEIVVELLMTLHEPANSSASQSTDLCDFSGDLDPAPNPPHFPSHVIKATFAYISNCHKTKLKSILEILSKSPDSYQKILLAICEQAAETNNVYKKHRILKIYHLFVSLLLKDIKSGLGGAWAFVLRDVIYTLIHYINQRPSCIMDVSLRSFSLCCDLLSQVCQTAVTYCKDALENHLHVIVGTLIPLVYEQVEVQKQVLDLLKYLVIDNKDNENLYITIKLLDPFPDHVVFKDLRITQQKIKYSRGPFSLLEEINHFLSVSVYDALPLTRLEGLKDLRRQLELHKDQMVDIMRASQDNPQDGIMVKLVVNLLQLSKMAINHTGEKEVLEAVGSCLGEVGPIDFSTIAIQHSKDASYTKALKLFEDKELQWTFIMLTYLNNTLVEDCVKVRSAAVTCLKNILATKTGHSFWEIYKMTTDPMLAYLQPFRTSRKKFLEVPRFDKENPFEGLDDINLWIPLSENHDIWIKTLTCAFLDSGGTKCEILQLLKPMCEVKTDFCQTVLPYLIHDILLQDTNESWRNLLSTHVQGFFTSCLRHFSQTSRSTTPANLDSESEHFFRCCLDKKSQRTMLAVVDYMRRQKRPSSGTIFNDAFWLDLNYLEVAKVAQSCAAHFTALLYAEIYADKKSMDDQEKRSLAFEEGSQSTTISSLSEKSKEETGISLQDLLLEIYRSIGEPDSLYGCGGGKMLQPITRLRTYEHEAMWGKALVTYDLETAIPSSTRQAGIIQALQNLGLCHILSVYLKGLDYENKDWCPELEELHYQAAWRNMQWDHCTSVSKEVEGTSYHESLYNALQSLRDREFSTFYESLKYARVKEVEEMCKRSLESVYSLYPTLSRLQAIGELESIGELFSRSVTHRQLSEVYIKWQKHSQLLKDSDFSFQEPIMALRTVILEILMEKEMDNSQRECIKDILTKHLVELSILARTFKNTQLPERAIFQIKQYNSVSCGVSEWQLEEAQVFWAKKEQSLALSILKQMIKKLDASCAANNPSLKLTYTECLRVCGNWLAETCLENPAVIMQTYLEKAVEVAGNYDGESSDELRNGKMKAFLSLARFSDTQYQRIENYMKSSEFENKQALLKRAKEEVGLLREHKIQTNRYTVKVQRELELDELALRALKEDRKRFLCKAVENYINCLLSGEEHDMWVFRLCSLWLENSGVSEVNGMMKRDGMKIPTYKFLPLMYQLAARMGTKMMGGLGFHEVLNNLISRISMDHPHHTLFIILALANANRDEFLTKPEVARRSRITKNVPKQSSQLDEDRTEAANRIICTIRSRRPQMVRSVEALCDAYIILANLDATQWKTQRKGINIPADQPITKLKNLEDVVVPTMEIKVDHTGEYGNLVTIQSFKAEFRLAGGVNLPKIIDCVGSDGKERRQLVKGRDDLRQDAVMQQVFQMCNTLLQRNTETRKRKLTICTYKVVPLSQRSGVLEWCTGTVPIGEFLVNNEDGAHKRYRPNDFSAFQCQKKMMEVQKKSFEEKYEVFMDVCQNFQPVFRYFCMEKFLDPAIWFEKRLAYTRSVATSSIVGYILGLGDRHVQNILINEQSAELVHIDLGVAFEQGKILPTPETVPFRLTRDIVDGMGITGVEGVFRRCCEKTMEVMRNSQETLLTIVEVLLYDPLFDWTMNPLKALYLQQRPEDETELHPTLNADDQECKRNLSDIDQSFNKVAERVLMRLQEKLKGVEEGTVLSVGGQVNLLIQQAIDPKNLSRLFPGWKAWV
Summary of the method: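 In NCI-H460 cells, radiation-triggered Chk2 phosphorylation (8Gy, 1 h) is detected by AlphaScreen SureFire following 1 h compound exposure.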

IC50 [µM]	SMILES
0.1 to 0.5	Cc1ccnc(C(C)Nc2ccc3c(c2)Cc2ccnc(-c4cc(N5CCOCC5)cc(=O)[nH]4)c2O3)c1 (centres unmarked) [Example 2-42-5, 6-(7-((1-(4-Methylpyridin-2-yl)ethyl)amino)-5H-chromeno[2,3-c]pyridin-1-yl)-4-morpholinopyridin-2(1H)-one]
0.1 to 0.5	Cc1cccc(C(C)Nc2ccc3c(c2)Cc2ccnc(-c4cc(N5CCOCC5)cc(=O)[nH]4)c2O3)n1 (centres unmarked) [Example 2-42-6, 6-(7-((1-(6-Methylpyridin-2-yl)ethyl)amino)-5H-chromeno[2,3-c]pyridin-1-yl)-4-morpholinopyridin-2(1H)-one]
0.5 to 2	COc1cccc(CNc2ccc3c(c2)Cc2ccnc(-c4cc(N5CCOCC5)cc(=O)[nH]4)c2O3)n1 [Example 2-42-7, 6-(7-(((6-Methoxypyridin-2-yl)methyl)amino)-5H-chromeno[2,3-c]pyridin-1-yl)-4-morpholinopyridin-2(1H)-one]
0.5 to 2	Nc1ccc2c(c1)Cc1c(F)ccc(-c3cc(N4CCOCC4)cc(=O)[nH]3)c1O2 [Example 2-43, 6-(7-Amino-1-fluoro-9H-xanthen-4-yl)-4-morpholinopyridin-2(1H)-one]
0.1 to 0.5	O=c1cc(N2CCOCC2)cc(-c2ccc(F)c3c2Oc2ccc(NCc4cccc(Cl)n4)cc2C3)[nH]1 [Example 2-44-1, 6-(7-(((6-Chloropyridin-2-yl)methyl)amino)-1-fluoro-9H-xanthen-4-yl)-4-morpholinopyridin-2(1H)-one]
0.1 to 0.5	O=c1cc(N2CCOCC2)cc(-c2ccc(F)c3c2Oc2ccc(NCc4cc(C5CC5)ccn4)cc2C3)[nH]1 [Example 2-44-2, 6-(7-(((4-Cyclopropylpyridin-2-yl)methyl)amino)-1-fluoro-9H-xanthen-4-yl)-4-morpholinopyridin-2(1H)-one]
0.1 to 0.5	O=c1cc(N2CCOCC2)cc(-c2ccc(F)c3c2Oc2ccc(NCc4cncc(Cl)c4)cc2C3)[nH]1 [Example 2-44-3, 6-(7-(((5-Chloropyridin-3-yl)methyl)amino)-1-fluoro-9H-xanthen-4-yl)-4-morpholinopyridin-2(1H)-one]
0.1 to 0.5	Nc1ccc2c(c1)Cc1ccc(F)c(-c3cc(N4CCOCC4)cc(=O)[nH]3)c1O2 [Example 2-45, 6-(7-Amino-3-fluoro-9H-xanthen-4-yl)-4-morpholinopyridin-2(1H)-one]
0.1 to 0.5	COc1ccc(CCN2CCC(Nc3ccc4c(c3)Cc3ccc(F)c(-c5cc(N6CCOCC6)cc(=O)[nH]5)c3O4)CC2)cc1 [Example 2-47, 6-(3-Fluoro-7-((1-(4-methoxyphenethyl)piperidin-4-yl)amino)-9H-xanthen-4-yl)-4-morpholinopyridin-2(1H)-one]
0.5 to 2	Nc1ccc2c(c1)Cc1cc(F)cc(-c3cc(N4CCOCC4)cc(=O)[nH]3)c1O2 [Example 2-48-1, 6-(7-amino-2-fluoro-9H-xanthen-4-yl)-4-morpholinopyridin-2(1H)-one]
0.1 to 0.5	O=c1cc(N2CCOCC2)cc(-c2cc(F)cc3c2Oc2ccc(NCc4cccc(Cl)n4)cc2C3)[nH]1 [Example 2-48-2, 6-(7-(((6-Chloropyridin-2-yl)methyl)amino)-2-fluoro-9H-xanthen-4-yl)-4-morpholinopyridin-2(1H)-one]
0.1 to 0.5	O=c1cc(N2CCOCC2)cc(-c2cc(F)cc3c2Oc2ccc(NCc4cncc(Cl)c4)cc2C3)[nH]1 [Example 2-48-3, 6-(7-(((5-Chloropyridin-3-yl)methyl)amino)-2-fluoro-9H-xanthen-4-yl)-4-morpholinopyridin-2(1H)-one]
0.1 to 0.5	O=c1cc(N2CCOCC2)cc(-c2cc(F)cc3c2Oc2ccc(NCc4cc(C5CC5)ccn4)cc2C3)[nH]1 [Example 2-48-4, 6-(7-(((4-Cyclopropylpyridin-2-yl)methyl)amino)-2-fluoro-9H-xanthen-4-yl)-4-morpholinopyridin-2(1H)-one]
0.5 to 2	COc1ccc(CNc2ccc3c(c2)Cc2cc(C)cc(-c4cc(N5CCOCC5)cc(=O)[nH]4)c2O3)cn1 [Example 2-49-1, 6-(7-(((6-Methoxypyridin-3-yl)methyl)amino)-2-methyl-9H-xanthen-4-yl)-4-morpholinopyridin-2(1H)-one]
0.1 to 0.5	COc1cncc(CNc2ccc3c(c2)Cc2cc(C)cc(-c4cc(N5CCOCC5)cc(=O)[nH]4)c2O3)c1 [Example 2-49-2, 6-(7-(((5-Methoxypyridin-3-yl)methyl)amino)-2-methyl-9H-xanthen-4-yl)-4-morpholinopyridin-2(1H)-one]
0.5 to 2	Nc1ccc2c(c1)CCc1cccc(-c3cc(N4CCOCC4)cc(=O)[nH]3)c1O2 [Example 2-50, 6-(8-Amino-10,11-dihydrodibenz[b,f]oxepin-4-yl)-4-morpholinopyridin-2(1H)-one]
0.1 to 0.5	O=c1cc(N2CCOCC2)cc(-c2cccc3c2Oc2ccc(NCc4cccnc4)cc2CC3)[nH]1 [Example 2-51-2, 4-Morpholino-6-(8-((pyridin-3-ylmethyl)amino)-10,11-dihydrodibenz[b,f]oxepin-4-yl)pyridin-2(1H)-one]
0.5 to 2	O=c1cc(N2CCOCC2)cc(-c2cccc3c2Oc2ccc(NCc4ccncc4)cc2CC3)[nH]1 [Example 2-51-3, 4-Morpholino-6-(8-((pyridin-4-ylmethyl)amino)-10,11-dihydrodibenz[b,f]oxepin-4-yl)pyridin-2(1H)-one]
0.1 to 0.5	Cc1cccc(CNc2ccc3c(c2)Cc2cccc(-c4nc(N5CCOCC5)cc(=O)[nH]4)c2O3)n1 [Example 2-52-1, 2-(7-(((6-Methylpyridin-2-yl)methyl)amino)-9H-xanthen-4-yl)-6-morpholino pyrimidine-4(3H)-one]
0.1 to 0.5	COc1cncc(CNc2ccc3c(c2)Cc2cccc(-c4nc(N5CCOCC5)cc(=O)[nH]4)c2O3)c1 [Example 2-52-2, 2-(7-(((5-Methoxypyridin-3-yl)methyl)amino)-9H-xanthen-4-yl)-6-morpholino pyrimidine-4(3H)-one]
0.1 to 0.5	O=c1cc(N2CCOCC2)nc(-c2cccc3c2Oc2ccc(NCc4cc(Cl)ccn4)cc2C3)[nH]1 [Example 2-52-3, 2-(7-(((4-Chloropyridin-2-yl)methyl)amino)-9H-xanthen-4-yl)-6-morpholinopyrimidine-4(3H)-one]
0.1 to 0.5	COc1cncc(C(C)Nc2ccc3c(c2)Cc2cccc(-c4nc(N5CCOCC5)cc(=O)[nH]4)c2O3)c1 (centres unmarked) [Example 2-52-4, 2-(7-((1-(5-Methoxypyridin-3-yl)ethyl)amino)-9H-xanthen-4-yl)-6-morpholinopyrimidine-4(3H)-one]
0.1 to 0.5	N#Cc1cccc(CNc2cccc3c2Cc2cccc(-c4cc(N5CCOCC5)cc(=O)[nH]4)c2O3)c1 [Example 2-56-4, 3-(((5-(4-Morpholino-6-oxo-1,6-dihydropyridin-2-yl)-9H-xanthen-1-yl)amino)methyl)benzonitrile]
0.1 to 0.5	O=c1cc(N2CCOCC2)cc(-c2cccc3c2Oc2cccc(N4CCOCC4)c2C3)[nH]1 [Example 2-60, 4-Morpholino-6-(8-morpholino-9H-xanthen-4-yl)pyridin-2(1H)-one]
0.5 to 2	O=c1cc(N2CCOCC2)cc(-c2cccc3c2Oc2ccc(Nc4cccnc4)cc2C3)[nH]1 [Example 2-61, 4-Morpholino-6-(7-(pyridin-3-ylamino)-9H-xanthen-4-yl)pyridin-2(1H)-one]
0.1 to 0.5	COc1ccc(C2c3cc(N)ccc3Oc3c2ccnc3-c2cc(N3CCOCC3)cc(=O)[nH]2)cc1 (centres unmarked) [Example 2-66, Hydrochloride of 6-(7-amino-5-(4-methoxyphenyl)-5H-chromeno[2,3-c]pyridin-1-yl)-4-morpholinopyridin-2(1H)-one]

Source: patent US9586951B2 (FUJIFILM Corporation, priority 2013, dated 2017)
